Patent US11214803B2, “Modulators of YAP1 expression” (Ionis Pharmaceuticals, Inc., priority 2019, dated 2022)
Strand notation (5' to 3'): a small letter for the sugar, then the base; units joined by * are phosphorothioate-linked, units joined directly phosphodiester-linked; [ ] holds rarer units or linkages, { } end groups; capitals alone tell only the bases. k = constrained ethyl (cEt); [5mC] = 5-methylcytosine; d = 2'-deoxy (DNA)

Test system: Yap1 mRNA
Experiment: Antisense inhibition of human Yap1 in A-431 cells by cEt gapmers, single dose (Example 3, RTS36584)
Assay type: cell-based
Settings: Table 8; A-431 cells, 5,000 cells per well, free uptake, 2,000 nM, approximately 48 hours; RTS36584; normalized to RIBOGREEN; Yap1 mRNA relative to untreated control cells
Summary of the method: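 A-431 cells were treated by free uptake with 2,000 nM modified oligonucleotide (3-10-3 cEt gapmers, full phosphorothioate, 5-methylcytosines) for about 48 hours. Yap1 mRNA was quantified by real-time RT-PCR, normalized to RiboGreen total RNA, and expressed as % of untreated control; asterisked values mark oligonucleotides targeting the amplicon region.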

Substance | YAP1 (% UTC)
958378 (antisense k[5mC]*kA*kT*d[5mC]*dA*dG*dT*dA*d[5mC]*dT*dG*dG*d[5mC]*k[5mC]*kT*kA) [Compound 958378] | 25
958355 (antisense k[5mC]*kG*kT*dT*dG*dG*d[5mC]*d[5mC]*dG*dT*d[5mC]*dT*dT*kG*kG*kG) [Compound 958355] | 51
958383 (antisense k[5mC]*kT*kT*d[5mC]*d[5mC]*dT*d[5mC]*dT*dG*d[5mC]*dG*d[5mC]*dG*k[5mC]*k[5mC]*k[5mC]) [Compound 958383] | 96
958412 (antisense kA*k[5mC]*k[5mC]*dT*dT*dT*dA*d[5mC]*d[5mC]*dA*dA*dA*dA*k[5mC]*kG*kA) [Compound 958412] | 49
958395 (antisense k[5mC]*kT*kA*dA*d[5mC]*dA*dA*d[5mC]*d[5mC]*dT*dG*dG*dT*kT*kT*kG) [Compound 958395] | 114
958397 (antisense k[5mC]*kA*kG*dG*d[5mC]*dT*dA*dT*dT*dA*dA*dG*d[5mC]*kT*kG*kT) [Compound 958397] | 127
958350 (kT*k[5mC]*k[5mC]*dG*dA*dG*dT*d[5mC]*d[5mC]*d[5mC]*d[5mC]*dG*d[5mC]*kG*kG*kA; antisense) [Compound 958350] | 106
958417 (antisense kA*k[5mC]*kG*dG*dA*dT*dA*dA*dA*dA*dA*dT*dT*kA*k[5mC]*kT) [Compound 958417] | 85
958375 (antisense kA*kA*kA*dG*d[5mC]*d[5mC]*dT*dT*dA*dG*dA*dG*dT*k[5mC]*kA*kA) [Compound 958375] | 2

Same assay, conditions: Table 9; A-431 cells, 5,000 cells per well, free uptake, 2,000 nM, approximately 48 hours; RTS36584; normalized to RIBOGREEN; Yap1 mRNA relative to untreated control cells

Substance | YAP1 (% UTC)
958651 (kA*kA*k[5mC]*dT*dA*dA*dA*dG*dA*dG*dG*dA*d[5mC]*kT*kT*kA; antisense) [Compound 958651] | 62
958691 (antisense kT*k[5mC]*kA*dG*dT*dT*dG*dG*d[5mC]*dA*dA*d[5mC]*dA*kG*kT*k[5mC]) [Compound 958691] | 20
958776 (antisense kG*kG*kT*dA*d[5mC]*dT*d[5mC]*dT*d[5mC]*d[5mC]*dT*dT*d[5mC]*kA*kG*kA) [Compound 958776] | 94
958551 (k[5mC]*kT*k[5mC]*d[5mC]*dT*dG*dT*dA*dG*dA*d[5mC]*dA*d[5mC]*kA*kT*kA; antisense) [Compound 958551] | 5
958526 (kA*kG*kT*dA*dA*dG*dA*dA*d[5mC]*dA*dA*dT*d[5mC]*kT*kT*kG; antisense) [Compound 958526] | 6

Same assay, conditions: Table 10; A-431 cells, 5,000 cells per well, free uptake, 2,000 nM oligonucleotide, approx. 48 hours; primer probe set RTS36584; Yap1 mRNA normalized to RIBOGREEN, percent of untreated control

Substance | YAP1 (% UTC)
958727 (antisense kA*kT*k[5mC]*dT*dG*dT*d[5mC]*dA*dG*dT*dT*dA*dT*k[5mC]*k[5mC]*kT) [Compound 958727] | 2
958467 (antisense kG*kG*kT*dG*dG*d[5mC]*dA*dG*d[5mC]*d[5mC]*dA*dA*dA*kA*k[5mC]*kA) [Compound 958467] | 32

Same assay, conditions: Table 11; A-431 cells, 5,000 cells per well, free uptake, 2,000 nM oligonucleotide, approx. 48 hours; primer probe set RTS36584; Yap1 mRNA normalized to RIBOGREEN, percent of untreated control

Substance | YAP1 (% UTC)
958573 (kG*kG*k[5mC]*dA*dA*dA*dT*dT*dA*dT*dA*dG*dG*k[5mC]*kA*k[5mC]; antisense) [Compound 958573] | 2
958813 (kT*kT*kA*d[5mC]*dA*dG*dA*dG*dA*dG*dA*dT*dT*k[5mC]*kA*kT; antisense) [Compound 958813] | 8
958463 (antisense k[5mC]*k[5mC]*kT*dG*dA*dG*dA*d[5mC]*dA*dT*d[5mC]*d[5mC]*d[5mC]*kG*kG*kG) [Compound 958463] | 63
958538 (kA*kT*k[5mC]*d[5mC]*dA*dG*dG*dG*dT*d[5mC]*dA*dA*dT*kT*kT*kT; antisense) [Compound 958538] | 10
958438 (antisense k[5mC]*kG*k[5mC]*d[5mC]*d[5mC]*d[5mC]*dG*dG*d[5mC]*dT*d[5mC]*d[5mC]*dA*k[5mC]*kT*kG) [Compound 958438] | 61
958478 (antisense kG*kG*kA*dA*dA*dT*dT*dT*d[5mC]*d[5mC]*dG*dG*dT*kG*k[5mC]*kA) [Compound 958478] | 14

Same assay, conditions: Table 12; A-431 cells, 5,000 cells per well, free uptake, 2,000 nM modified oligonucleotide, approx. 48 hours; RTS36584; normalized to RIBOGREEN; Yap1 mRNA relative to untreated control cells

Substance | YAP1 (% UTC)
958789 (antisense kT*kA*k[5mC]*dT*dA*dT*dA*dT*dA*dA*dT*dA*d[5mC]*k[5mC]*k[5mC]*kT) [Compound 958789] | 17
958699 (antisense kG*kA*k[5mC]*dT*dA*dG*dA*dA*dA*dG*dA*dT*d[5mC]*kA*kT*k[5mC]) [Compound 958699] | 20
958529 (k[5mC]*kA*kA*dG*dT*d[5mC]*dT*dT*dG*dT*dA*dA*dG*kT*kA*kA; antisense) [Compound 958529] | 3

Same assay, conditions: Table 13; A-431 cells, 5,000 cells per well, free uptake, 2,000 nM modified oligonucleotide, approx. 48 hours; RTS36584; normalized to RIBOGREEN; Yap1 mRNA relative to untreated control cells

Substance | YAP1 (% UTC)
958765 (antisense kG*kT*kA*d[5mC]*dA*dG*dG*dA*dG*dA*dG*dA*dT*kT*kG*k[5mC]) [Compound 958765] | 37
958615 (antisense kT*kG*kG*dT*d[5mC]*dT*dT*dG*dT*dT*d[5mC]*dT*dT*kA*kT*kG) [Compound 958615] | 3
958450 (antisense kG*kG*kT*d[5mC]*dG*d[5mC]*d[5mC]*dG*d[5mC]*dG*dG*dG*dT*kG*k[5mC]*k[5mC]) [Compound 958450] | 59
958460 (antisense kT*k[5mC]*kG*d[5mC]*dA*dT*d[5mC]*dT*dG*dT*dT*dG*d[5mC]*kT*kG*k[5mC]) [Compound 958460] | 52
958675 (kT*k[5mC]*k[5mC]*d[5mC]*dT*dA*dT*d[5mC]*dA*dG*d[5mC]*dT*dG*kG*kG*k[5mC]; antisense) [Compound 958675] | 112
958555 (kG*k[5mC]*kT*dT*dA*dT*dA*dT*dT*dG*dA*dA*dG*kA*kG*kT; antisense) [Compound 958555] | 4

Same assay, conditions: Table 26; Yap1 mRNA by 3-10-3 cEt gapmers targeting SEQ ID NO.: 1, and 2; percent of untreated control

Substance | YAP1 (% UTC)
1075724 (k[5mC]*kT*kA*dT*d[5mC]*dT*dG*dT*d[5mC]*dA*dG*dT*dT*kA*kT*k[5mC]; antisense) [compound 1075724] | 44
1075948 (antisense kG*kG*kA*d[5mC]*dT*dA*dA*dA*dG*dA*dA*dT*dA*k[5mC]*kA*kG) [compound 1075948] | 31
1076236 (kG*kG*kA*dG*dA*dA*d[5mC]*d[5mC]*dT*dT*dA*dT*dT*kT*kA*kT; antisense) [compound 1076236] | 51

Same assay, conditions: Table 27; Yap1 mRNA by 3-10-3 cEt gapmers targeting SEQ ID NO.: 1, and 2; percent of untreated control

Substance | YAP1 (% UTC)
1075821 (k[5mC]*kT*kT*dA*dA*d[5mC]*dT*dT*d[5mC]*d[5mC]*d[5mC]*dA*d[5mC]*kT*k[5mC]*kG; antisense) [compound 1075821] | 22

Same assay, conditions: Table 28; Yap1 mRNA as percent of untreated control; 3-10-3 cEt gapmers targeting SEQ ID NO.: 1, and 2

Substance | YAP1 (% UTC)
1075822 (k[5mC]*kT*kT*dA*dG*dT*dA*dA*dT*dT*dG*d[5mC]*d[5mC]*k[5mC]*kA*kT; antisense) [compound 1075822] | 35
1075086 (antisense kA*kG*kT*dT*dA*dT*dA*dG*dA*d[5mC]*dT*dT*dT*kG*kT*kA) [compound 1075086] | 25

Same assay, conditions: Table 29; Yap1 mRNA as percent of untreated control; 3-10-3 cEt gapmers targeting SEQ ID NO.: 1, and 2

Substance | YAP1 (% UTC)
1074415 (kG*k[5mC]*k[5mC]*dA*dA*d[5mC]*dT*dG*dT*dG*dA*dA*dA*kG*kA*kG; antisense) [compound 1074415] | 10

Same assay, conditions: Table 34; Yap1 mRNA as percent of untreated control; 3-10-3 cEt gapmers targeting SEQ ID NO: 1 and 2; single dose

Substance | YAP1 (% UTC)
1074708 (antisense k[5mC]*kT*kT*dT*dA*dA*dT*dG*dG*d[5mC]*dA*dG*d[5mC]*kA*k[5mC]*kG) [compound 1074708] | 55
1075924 (antisense kA*kT*kT*dT*dA*dA*dT*dA*d[5mC]*dT*d[5mC]*dT*d[5mC]*kT*kG*kG) [compound 1075924] | 21
1075636 (antisense k[5mC]*kA*kA*dT*dA*dA*dA*d[5mC]*dA*d[5mC]*d[5mC]*dT*d[5mC]*kG*k[5mC]*k[5mC]) [compound 1075636] | 91
1075060 (antisense kG*kT*kT*dT*dA*dA*d[5mC]*dA*dA*dT*d[5mC]*dT*d[5mC]*k[5mC]*k[5mC]*k[5mC]) [compound 1075060] | 70
1075700 (kG*k[5mC]*k[5mC]*dA*dA*dA*dT*dA*dA*dG*dA*dG*dG*kT*kA*kG; antisense) [compound 1075700] | 22
1076372 (antisense k[5mC]*kA*kA*dT*dA*dA*dG*dA*dA*d[5mC]*dG*dA*dA*k[5mC]*k[5mC]*kT) [compound 1076372] | 76

Same assay, conditions: Table 35; Yap1 mRNA as percent of untreated control; 3-10-3 cEt gapmers targeting SEQ ID NO: 1 and 2; single dose

Substance | YAP1 (% UTC)
1075317 (antisense kG*kT*kA*dT*dT*d[5mC]*dG*d[5mC]*d[5mC]*dT*d[5mC]*d[5mC]*dT*kG*k[5mC]*kA) [compound 1075317] | 27
1074645 (antisense kA*kA*kT*dT*dG*dA*dA*dG*dG*dG*d[5mC]*d[5mC]*dA*kA*kA*kA) [compound 1074645] | 81
